One data set deals with all PKD isoforms. The following applies: cited from earlier work.
Data set [1] addresses T1, PKD1 (Homo sapiens, UniProt Q15139).
T1 sequence (Q15139 1-912): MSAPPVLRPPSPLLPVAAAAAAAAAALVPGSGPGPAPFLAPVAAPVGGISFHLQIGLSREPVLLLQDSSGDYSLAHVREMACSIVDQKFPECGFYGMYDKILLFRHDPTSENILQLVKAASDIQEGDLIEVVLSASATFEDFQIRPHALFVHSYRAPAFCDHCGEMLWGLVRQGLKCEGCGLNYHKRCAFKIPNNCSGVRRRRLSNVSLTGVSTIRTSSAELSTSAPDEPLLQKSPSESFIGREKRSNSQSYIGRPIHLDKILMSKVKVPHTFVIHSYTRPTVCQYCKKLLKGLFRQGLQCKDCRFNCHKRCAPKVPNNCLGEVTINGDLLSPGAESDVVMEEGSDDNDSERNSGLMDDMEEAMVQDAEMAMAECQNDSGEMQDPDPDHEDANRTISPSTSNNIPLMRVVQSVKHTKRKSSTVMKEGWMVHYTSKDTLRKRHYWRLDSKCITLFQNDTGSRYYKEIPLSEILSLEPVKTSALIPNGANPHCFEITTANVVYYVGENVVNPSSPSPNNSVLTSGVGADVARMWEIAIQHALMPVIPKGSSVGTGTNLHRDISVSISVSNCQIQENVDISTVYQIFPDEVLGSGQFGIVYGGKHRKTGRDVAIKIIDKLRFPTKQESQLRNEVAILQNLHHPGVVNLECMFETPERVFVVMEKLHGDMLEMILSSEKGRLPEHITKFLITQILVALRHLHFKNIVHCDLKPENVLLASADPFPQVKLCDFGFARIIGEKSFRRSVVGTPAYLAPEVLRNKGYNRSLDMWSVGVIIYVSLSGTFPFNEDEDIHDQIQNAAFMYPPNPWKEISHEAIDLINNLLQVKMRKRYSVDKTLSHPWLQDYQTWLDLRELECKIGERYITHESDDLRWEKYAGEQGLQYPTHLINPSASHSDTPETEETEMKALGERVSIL
The data set is described as follows: Cellular PKD1 inhibition: densitometry of Western blots for PKD1 autophosphorylation at S916 in PMA-stimulated LNCaP cells. Type of data set: cell-based. The following applies: for EC50: PMA-induced autophosphorylation of endogenous PKD1 in LNCaP prostate cancer cells; for fold improvement in cellular activity over CID755673: cellular EC50 relative to CID755673. The method, then:
Inhibition of PKD 1 in cells was determined by densitometry analysis of Western blotting data for PKD1 autophosphorylation at Ser^916 in LNCaP cells as previously described. LNCaP cells were pre-treated with PKD inhibitors for 45 min at various concentrations, and then stimulated with 10 nM phorbol 12-myristate 13-acetate (PMA) for 20 min. Cells were then collected and lysed in lysis buffer containing 200 mM Tris-HCl, pH 7.4, 100 μM 4-(2-aminoethyl) benzenesulfonyl fluoride, 1 mM EGTA, and 1% Triton X-100. Cell lysates were probed by Western blot analysis using primary antibodies targeting p-S916-PKD1 (Millipore), PKD1 (Cell Signaling Technology), or GAPDH. Densitometry analysis of visualized bands was used to determine the cellular IC50 values for PKD1 inhibition.

Data set [2] concerns the target T1, PKD1. The data set is described as follows: In vitro radiometric PKD kinase activity assay. Type of data set: biochemical. Further details: purchased Biomol International. The following applies: for fold improvement in PKD1 potency over CID755673: relative to parent CID755673; for inhibitory activity against PKD (in words): preliminary biological data for kmg-NB5-13 and kmg-NB5-15. The method, then:
In vitro radiometric PKD kinase assays were conducted as previously described. Briefly, 50 ng recombinant human PKD1 (Biomol International, Plymouth Meeting, PA, USA) was incubated at 30 °C for 10 min with a reaction mixture containing 2.5 μg syntide-2 (Sigma), 70 μM ATP, and 1 μCi γ-^32 P-ATP (PerkinElmer, Boston, MA, USA) in kinase buffer (50 mM Tris-HCl pH 7.5, […], and 10 mM […]). 25 μL of the reaction mixture was then spotted on Whatman P81 filter paper (Whatman Inc., Clifton, NJ, USA), and filter papers were washed three times with 0.5% phosphoric acid, dried, then counted using a Beckman LS6500 multi-purpose scintillation counter.

Data set [3] has as its target T1, PKD1. The data set is described as follows: IMAP-based PKD Fluorescence Polarization (FP) assay, automated HTS format. Type of data set: biochemical. To be noted: mean ± SEM, n = number of independent experiments. The method, then:
An automated, HTS formatted IMAP-based PKD Fluorescence Polarization (FP) assay was used to assess the specificity of the PKD analogs as previously described. […] Kinase reactions were incubated for 90 min at room temperature and stopped by the addition of IMAP binding reagent. Assay plates were then incubated for 2 h and IMAP-based FP data were captured on a Molecular Devices Spectra-Max M5 (Sunnyvale, CA, USA).

Data set [4] in a line: Preliminary in vivo studies (plasma half-life, metabolism; data not shown). The following applies: for plasma half-life: preliminary in vivo studies, data not shown.
Data set [5] addresses T1, PKD1. Nature of the data set: % PKD1 activity at 1 μM (single concentration; assay format not stated). It is filed as biochemical. The following applies: compound at 1 μM.
The next data set in a line: Aqueous solubility. Type of data set: physicochemical. The following applies: aqueous medium with lipophilic solubilizing agents; even in the presence of lipophilic solubilizing agents.
The nature of data set [6]: Stability in protic solvents. The following applies: attributed to nucleophilic attack at C-4 of the pyrimidine. Type of data set: physicochemical.
Setting [7] is: PKD1 autophosphorylation at S916 in LNCaP cells, mean ± SEM.
Where [8] appears, read: mean ± SEM, n = number of independent experiments, read-out: IC50 Radiometric PKD1.

“And” between values parts separate entries of the source, which are not always exact repeats. Identical values can stand only once.

We go through 15 compounds from PMC3261798, “Design, Synthesis, and Biological Evaluation of PKD Inhibitors” (Pharmaceutics, 2011).

On to `NC(=O)c1cc(-c2ccnc(NC3CCCCC3)c2)nc(N2CCNCC2)c1` [BPKDi], for which the “IC50 values, all three isoforms of PKD” value with all PKD isoforms is “single digit nanomolar”.

With `O=C1NCCCc2c1oc1ccc(O)cc21` [CID755673, 7-Hydroxy-2,3,4,5-tetrahydro-[1]benzoxolo[2,3-c]azepin-1-one], the IC50 on PKD1 [1] (setting [7]) was 11800 ± 4000 nM; with all PKD isoforms it was 200 to 300 nM; at PKD1 [2] (setting [8]), 180 ± 20 nM; against PKD1 [3] it was 640 ± 30 nM. The EC50 at PKD1 [1] came to 11.8 µM.

`CC[C@@H](N)CNc1ccnc(-c2cc(-c3cnn(C)c3)ccc2O)n1.Cl.Cl` [CRT0066101]: the “IC50s, all isoforms of PKD” value with all PKD isoforms was “single-digit nanomolar”.

Regarding `C[C@H](C#N)Nc1cccc(-c2cc(-c3ccc(CNC4CCOCC4)cc3)on2)c1` [Compound 2b], in the data set with all PKD isoforms, the “IC50s, all PKD isoforms” value was “low nanomolar”; the “fold preference for PKD1 versus PKD2” value is 9 fold; the “fold preference for PKD1 versus PKD3” value is 3 fold.

Turning to `O=C1NCCCc2c1[nH]c1ccc(O)cc21` [kb-NB123-57, 3,4,5,10-Tetrahydro-7-hydroxy-azepino[3,4-b]indol-1(2H)-one], the “IC50 Cellular PKD1” value against PKD1 [1] (setting [7]) is “no significant cellular activity”. Besides, the values for the IC50 at PKD1 [2] (setting [8]) and against PKD1 [3] were 130 ± 10 nM and 2140 ± 120 nM, respectively.

For the compound `O=C1NCCSc2c1sc1ccc(O)cc21` [kb-NB142-70, 3,4-Dihydro-9-hydroxy-[1]benzothieno[2,3-f]-1,4-thiazepin-5(2H)-one], the half-maximal inhibitory concentration (IC50) at PKD1 [1] (setting [7]) was determined as 2220 ± 590 nM; on PKD1 [2] (setting [8]) it was 28 ± 2 nM; against PKD1 [3], 710 ± 20 nM. Also, at PKD1 [1], the midpoint of the response, the EC50, lay at 2.2 µM. Also, the “fold improvement in cellular activity over CID755673” value at PKD1 [1] was “ca. 5 fold”. Besides, the “fold improvement in PKD1 potency over CID755673” value on PKD1 [2] is given as approximately 7 fold. Further, in data set [4], the plasma half-life entry was “short”. In addition, the major metabolic pathway result in data set [4] (preliminary results from an animal model) is “glucuronidation of kb-NB142-70 at the phenolic position to be a major metabolic pathway”.

For the compound `COc1ccc2sc3c(c2c1)SCCNC3=O` [kb-NB165-09, 3,4-Dihydro-9-methoxy-[1]benzothieno[2,3-f]-1,4-thiazepin-5(2H)-one], the IC50 was found to be 3130 ± 540 nM against PKD1 [1] (setting [7]) and 80 ± 10 nM at PKD1 [2] (setting [8]). The compound also showed an EC50 at PKD1 [1] of 3.1 µM. Further, the “fold improvement in cellular activity over CID755673” value at PKD1 [1] is given as “ca. 5 fold”. Moreover, on PKD1 [2], the “fold improvement in PKD1 potency over CID755673” value was “ca. 7 fold”. Further, in [4], the plasma half-life result is reported as “short”.

Regarding `O=C1NCCSc2c1sc1ccc(O)c(I)c21` [kb-NB165-31, 3,4-Dihydro-9-hydroxy-10-iodo-[1]benzothieno[2,3-f]-1,4-thiazepin-5(2H)-one], the melting point is 128 °C (dec.). The “fold lower cellular activity than kb-NB142-70” value on PKD1 [1] (relative to kb-NB142-70) is 4 fold. On PKD1 [5], this compound displayed a remaining activity at 1 µM of 13.6%. The IC50 at PKD1 [2] (in vitro, read-out: PKD1 IC50) was determined as 114 nM. Also, the IC50 at PKD1 [2] (setting [8]) stood at 110 ± 20 nM.

Turning to `O=C1NCCCSc2c1sc1ccc(O)cc21` [kb-NB165-92, 2,3,4,5-Tetrahydro-10-hydroxybenzo[b]thieno[2,3-f]-1,5-thiazocin-6-one], the IC50 against PKD1 [1] (setting [7]) was 2560 ± 660 nM; at PKD1 [2] (setting [8]) it was 110 ± 10 nM. At PKD1 [5], this compound came in with a remaining activity at 1 µM of 16.7%.

In the case of `O=C1NCCSc2c1sc1ccc(O)c(Br)c21` [kb-NB184-52, 3,4-Dihydro-9-hydroxy-10-bromo-[1]benzothieno[2,3-f]-1,4-thiazepin-5(2H)-one], the melting point was 235 to 238 °C (dec.). In addition, the remaining activity at 1 µM on PKD1 [5] worked out at 12.7 ± 0.2%. Also, the IC50 at PKD1 [2] (setting [8]) amounted to 48 nM.

Compound `COC(=O)c1sc2ccc(OC)cc2c1NCCCO` [kb-NB184-80, Methyl 3-(3-hydroxypropylamino)-5-methoxybenzo[b]thiophene-2-carboxylate] yielded a melting point of 116 to 120 °C. The compound also displayed a remaining activity at 1 µM at PKD1 [5] of 91.3 ± 1.5%. Moreover, the “IC50 Radiometric PKD1” value at PKD1 [2] (mean ± SEM, n = number of independent experiments) was “not inhibitory”.

As to `COc1ncc2sc3c(c2n1)SCCNC3=O` [kmg-NB4-23, 2-Methoxy-7H,8H,9H-1,4-thiazepino [7′,6′-5,4]thiopheno[3,2-d]pyrimidin-6-one], the melting point was 308 °C (dec.). This compound also returned an IC50 on PKD1 [1] (setting [7]) of 6800 ± 1300 nM. Also, the solubility in the data set “Aqueous solubility” is less than 400 µg/mL. Besides, the IC50 on PKD1 [2] (in vitro, read-out: PKD1 IC50) was found to be 124 nM. Further, the IC50 at PKD1 [2] (setting [8]) came out at 120 ± 30 nM. Further, the “inhibitory activity against PKD (in words)” value at PKD1 [2] is reported as “potent nanomolar inhibitor”.

For the compound `O=C1NCCSc2c1sc1cnc(O)nc21` [kmg-NB4-69A, 2-Hydroxy-7H,8H,9H-1,4-thiazepino[7′,6′-5,4]thiopheno[3,2-d]pyrimidin-6-one], on PKD1 [2] (setting [8]), the IC50 stood at 25300 nM. At PKD1 [2], the “inhibitory activity against PKD (in words)” value is “only weak inhibitory effect”. The “stability in protic solvents” value in data set [6] is “spontaneously degrades in protic solvents”.

In turn, `Nc1ccc2sc3c(c2c1)SCCNC3=O` [mcf292-03, 3,4-Dihydro-9-amino-[1]benzothieno[2,3-f]-1,4-thiazepin-5(2H)-one] yielded a melting point of 198.6 to 199 °C. Moreover, at PKD1 [5], the remaining activity at 1 µM is 74.4 ± 1.1%. In addition, the IC50 on PKD1 [2] (setting [8]) came out at 3170 nM.

`[N-]=[N+]=Nc1ccc2sc3c(c2c1)SCCNC3=O` [mcf292-08, 3,4-Dihydro-9-azido-[1]benzothieno[2,3-f]-1,4-thiazepin-5(2H)-one]: the melting point was 193 °C (dec.). Also, the IC50 at PKD1 [1] (setting [7]) is 2200 nM and 2170 nM. Also, the half-maximal inhibitory concentration (IC50) at PKD1 [2] (in vitro, read-out: PKD1 IC50) was 74.9 nM. For the same compound, the IC50 at PKD1 [2] (setting [8]) came to 80 ± 10 nM.

In general, IC50 refers to the point on the concentration scale where inhibition reaches its midpoint. What is called EC50 is the concentration at which the effect is half-maximal. Low readings indicate an effect from little substance, high ones a need for much substance. What is called melting point is the temperature of the solid-liquid transition. Usually remaining activity stands for the activity still measured, relative to the control. The solubility is how much of the substance goes into solution per volume.
